Experimental findings from patent US9175045B2, “Peptidomimetic macrocycles” (Aileron Therapeutics, Inc., priority 2008, dated 2015) are described below.

Numbered stars: 1 amine (or outer) side, 2 acyl side, 3 side chain; on linkers, the order of the positions; unused ones are H or OH. Bridge positions count the residues as written; N and C are the ends. Square brackets hold non-standard residues; d marks the D form. Peptide text beside a SMILES is read from it. * marks the point of attachment. ξ: configuration not given here. ξαMeNle(6-ylidene) = CC(CCCC=[*:3])(N[*:1])C(=O)[*:2]; Nle = CCCC[C@H](N)C(=O)O; Aib = CC(C)(N)C(=O)O; Propionyl = CCC(=O)*

Test [1] concerns Jurkat cell line. It is filed as cell-based. The settings on record: 24 h. How it is done: Jurkat cell line (Clone E6-1, ATCC catalog #TIB-152) is grown in specific serum-supplemented media (RPMI-1640, Invitrogen catalog #22400) as recommended by ATCC. A day prior to the initiation of the study, cells are split at optimal cell density (2×10^5-5×10^5 cells/ml) to assure actively dividing cells. The next day, cells are washed twice in serum-free Opti-MEM media (Invitrogen, Catalog #51985) and cells are then plated at optimal cell density (10,000 cells/well) in 50 μl Opti-MEM media or Opti-MEM supplemented with 2% or 10% human serum (Bioreclamation, catalog #HMSRM) in 96-well white tissue culture plate (Nunc, catalog #136102).
For serum free experiment, crosslinked polypeptides are diluted from 2 mM stocks (100% DMSO) in sterile water to prepare 400 μM working solutions. The crosslinked polypeptides and controls are diluted 10-fold first and then serially two-fold diluted in Opti-MEM in dosing plates to provide concentrations of between 1.2 and 40 μM. 50 μl of each dilution is then added to the appropriate wells of the test plate to achieve final concentrations of the polypeptides equal to between 0.6 to 20 μM. For studies using Opti-MEM supplemented with human serum (Bioreclamation, catalog #HMSRM), crosslinked polypeptides are diluted from 10 mM stocks (100% DMSO) in sterile water to prepare 2 mM working solutions. The crosslinked polypeptides and controls are diluted 10-fold first and then serially two-fold diluted in Opti-MEM in the presence of 2% or 10% of human serum to provide concentrations of the polypeptides equal to between 6.25 to 200 μM in dosing plates. 50 μl of each dilution is then added to the appropriate wells of the test plate to achieve final concentrations of the polypeptides equal to between 3.125 to 100 μM. Controls included wells without polypeptides containing the same concentration of DMSO as the wells containing the macrocycles, wells containing 0.1% Triton X-100 and wells containing no cells. Plates are incubated for 24 hours at 37° C. in humidified 5% CO2 atmosphere.
At the end of the incubation period, CellTiter-Glo assay is performed according to manufacturer's instructions (Promega, catalog #G7573) and luminescence is measured using Synergy HT Plate reader (BioTek). Luminescence correlates with viability. A reduction in viability reflects the ability of the test compounds to induce programmed cell death via BAX and BAK.

Test [2] deals with human serum proteins. The test is described as follows: Apparent affinity to human serum proteins (Kd*) by EC50 shift analysis. In kind it is in vitro ADME. The settings on record: nonlinear regression of EC50 shift with serum, n = 1, P = 700 μM for 100% serum. The text has this:
The measurement of apparent Kd values for serum protein by EC50 shift analysis provides a simple and rapid means of quantifying the propensity of experimental compounds to bind HSA and other serum proteins. A linear relationship exists between the apparent EC50 in the presence of serum protein (EC′50) and the amount of serum protein added to an in vitro assay. This relationship is defined by the binding affinity of the compound for serum proteins, expressed as Kd*. This term is an experimentally determined, apparent dissociation constant that may result from the cumulative effects of multiple, experimentally indistinguishable, binding events. The form of this relationship is presented here in Eq. 0.3, and its derivation can be found in Copeland et al, Biorg. Med. Chem. Lett. 2004, 14:2309-2312. [formula] A significant proportion of serum protein binding can be ascribed to drug interactions with HSA, due to the very high concentration of this protein in serum (35-50 g/L or 530-758 μM). To calculate the Kd value for these compounds we have assumed that the shift in EC50 upon protein addition can be ascribed fully to the HSA present in the added serum, where P is 700 μM for 100% serum, P is 70 μM for 10% serum, etc. We further made the simplifying assumption that all of the compounds bind HSA with a 1:1 stoichiometry, so that the term n in Eq. (0.3) is fixed at unity. With these parameters in place we calculated the Kd* value for each stapled peptide from the changes in EC50 values with increasing serum (and serum protein) concentrations by nonlinear regression analysis of Eq. 0.3 using Mathematica 4.1 (Wolfram Research, Inc., www.wolfram.com). EC′50 values in whole blood are estimated by setting P in Eq. 0.3 to 700 μM [HSA].

Consider `CCCC[C@H](NC(=O)C1(C)CCCC=CCCCC(C)(NC(=O)[C@H](C)NC(=O)[C@H](CC(C)C)NC(=O)[C@H](Cc2c[nH]cn2)NC(=O)[C@H](CCCNC(=N)N)NC(=O)[C@H](C)NC(=O)[C@@H](NC(=O)[C@H](CC(N)=O)NC(=O)[C@H](CCCNC(=N)N)NC(=O)CC)[C@@H](C)CC)C(=O)N[C@@H](C(C)C)C(=O)NC(C)(C)C(=O)N[C@@H](CC(=O)O)C(=O)N1)C(=O)N[C@@H](CC(=O)O)C(=O)N[C@@H](CCCNC(=N)N)C(=O)N[C@@H](CO)C(=O)N[C@H](C(N)=O)[C@@H](C)CC` (stereo partly shown) [Compound 5, Pr-RNIARHLA$VAibD$NleDRSI-NH2] (Propionyl-RNIARHLA[ξαMeNle(6-ylidene)]V[Aib]D[ξαMeNle(6-ylidene)][Nle]DRSI-NH2; staple 9-13), for which the EC50 in test [1] was 1.6 µM. In addition, the Kd in test [2] stood at 0.2 µM.
For `CCCC[C@H](NC(=O)C1(C)CCCC=CCCCC(C)(NC(=O)C(C)(C)NC(=O)[C@H](CC(C)C)NC(=O)[C@H](Cc2c[nH]cn2)NC(=O)[C@H](CCCNC(=N)N)NC(=O)[C@H](C)NC(=O)[C@@H](NC(=O)[C@H](CC(N)=O)NC(=O)[C@H](CCCNC(=N)N)NC(=O)CC)[C@@H](C)CC)C(=O)N[C@@H](C(C)C)C(=O)NC(C)(C)C(=O)N[C@@H](CC(=O)O)C(=O)N1)C(=O)N[C@@H](CC(=O)O)C(=O)N[C@@H](CCCNC(=N)N)C(=O)N[C@@H](CO)C(=O)N[C@H](C(N)=O)[C@@H](C)CC` (stereo partly shown) [Compound 6, Pr-RNIARHLAib$VAibD$NleDRSI-NH2] (Propionyl-RNIARHL[Aib][ξαMeNle(6-ylidene)]V[Aib]D[ξαMeNle(6-ylidene)][Nle]DRSI-NH2; staple 9-13) the same measures were 1 µM and 0.4 µM.
The corresponding values for `CCC(=O)N[C@@H](CCCNC(=N)N)C(=O)N[C@@H](CC(N)=O)C(=O)N[C@H](C(=O)N[C@@H](C)C(=O)N[C@@H](CCCNC(=N)N)C(=O)N[C@@H](Cc1c[nH]cn1)C(=O)N[C@@H](CC(C)C)C(=O)N[C@@H](C)C(=O)NC1(C)CCCC=CCCCC(C)(C(=O)N[C@@H](Cc2ccccc2)C(=O)N[C@@H](C)C(=O)N[C@@H](CCCNC(=N)N)C(=O)N[C@@H](CO)C(=O)N[C@H](C(N)=O)[C@@H](C)CC)NC(=O)[C@H](CC(=O)O)NC(=O)C(C)(C)NC(=O)[C@H](C(C)C)NC1=O)[C@@H](C)CC` (stereo partly shown) [Compound 7, Pr-RNIARHLA$VAibD$FARSI-NH2] (Propionyl-RNIARHLA[ξαMeNle(6-ylidene)]V[Aib]D[ξαMeNle(6-ylidene)]FARSI-NH2; staple 9-13) are 2.2 µM and 1.1 µM.
The corresponding values for `CCCC[C@H](NC(=O)C1(C)CCCC=CCCCC(C)(NC(=O)[C@H](C)NC(=O)[C@H](CC(C)C)NC(=O)[C@H](Cc2c[nH]cn2)NC(=O)[C@H](CCCNC(=N)N)NC(=O)[C@H](C)NC(=O)[C@@H](NC(=O)[C@H](CC(N)=O)NC(=O)[C@H](CCCNC(=N)N)NC(=O)CC)[C@@H](C)CC)C(=O)N[C@@H](C(C)C)C(=O)NCC(=O)N[C@@H](CC(=O)O)C(=O)N1)C(=O)NC(C)(C)C(=O)N[C@@H](CCCNC(=N)N)C(=O)N[C@@H](CO)C(=O)N[C@H](C(N)=O)[C@@H](C)CC` (stereo partly shown) [Compound 8, Pr-RNIARHLA$VGD$NleAibRSI-NH2] (Propionyl-RNIARHLA[ξαMeNle(6-ylidene)]VGD[ξαMeNle(6-ylidene)][Nle][Aib]RSI-NH2; staple 9-13) are 2.4 µM and 2.3 µM.
With `CC[C@H](C)[C@H](NC(=O)[C@H](Cc1c[nH]c2ccccc12)NC(=O)[C@H](CCCNC(=N)N)NC(C)=O)C(=O)N[C@@H](C)C(=O)N[C@@H](CCC(N)=O)C(=O)N[C@@H](C)C(=O)N[C@@H](CC(C)C)C(=O)N[C@@H](CCCNC(=N)N)C(=O)NC1(C)CCCC=CCCCC(C)(C(=O)N[C@@H](Cc2ccccc2)C(=O)N[C@@H](CC(N)=O)C(=O)N[C@@H](C)C(=O)N[C@@H](Cc2ccccc2)C(=O)N[C@@H](Cc2ccc(O)cc2)C(=O)N[C@@H](C)C(=O)N[C@@H](CCCNC(=N)N)C(=O)N[C@@H](CCCNC(=N)N)C(N)=O)NC(=O)[C@H](CC(=O)O)NC(=O)CNC(=O)[C@H]([C@@H](C)CC)NC1=O` (stereo partly shown) [Compound 14, Ac-RWIAQALR$1GD$FNAFYARR-NH2], the EC50 in test [1] was 0.4 µM. Moreover, the Kd in test [2] stood at 2.3 µM.

By EC50 is commonly meant the midpoint of the concentration-response curve.
